The numbers were not newly measured in patent publication US12390412B2, “Hydroglycolic cosmetic composition with a high active content” (L'OREAL, priority 2020, dated 2025), which cites them from elsewhere.

Molecules are shown by their SMILES.

For this data set the following is noted: pH of the composition about 3.0 to about 4.0, more particularly about 3.5.

As to `O=C1O[C@H]([C@@H](O)CO)C(O)=C1O` [ascorbic acid], the “ascorbic acid remains in a protonated, uncharged form” value was “greater than 82%”.
